Test results as given in article PMC12858405, “Ideal efficacy photoswitching for chromocontrol of TRPC4/5 channel functions in live tissues” (Nature Chemical Biology, 2026).

Key:
mouse TRPC5 = target: T1, mouse TRPC5 (Mus musculus, UniProt Q9QX29); assay: FLIPR Ca2+ influx assay (Fluo-4) with 365/447 nm photoswitching, HEK293 stably expressing mouse TRPC5; type: cell-based; details: for Activity on TRPC5 in FLIPR screening: 365/447 nm cycles; for EC50: Z* = mostly-Z PSS under 365 nm LED, Fluo-4-loaded cells, read-out: Agonistic EC50 (365 nm) TRPC5
T1 construct: expressed in transfected cells; host or cells: HEK293 (ATCC CRL 1573), stably transfected, tetracycline-induced
T1 sequence (Q9QX29 1-975): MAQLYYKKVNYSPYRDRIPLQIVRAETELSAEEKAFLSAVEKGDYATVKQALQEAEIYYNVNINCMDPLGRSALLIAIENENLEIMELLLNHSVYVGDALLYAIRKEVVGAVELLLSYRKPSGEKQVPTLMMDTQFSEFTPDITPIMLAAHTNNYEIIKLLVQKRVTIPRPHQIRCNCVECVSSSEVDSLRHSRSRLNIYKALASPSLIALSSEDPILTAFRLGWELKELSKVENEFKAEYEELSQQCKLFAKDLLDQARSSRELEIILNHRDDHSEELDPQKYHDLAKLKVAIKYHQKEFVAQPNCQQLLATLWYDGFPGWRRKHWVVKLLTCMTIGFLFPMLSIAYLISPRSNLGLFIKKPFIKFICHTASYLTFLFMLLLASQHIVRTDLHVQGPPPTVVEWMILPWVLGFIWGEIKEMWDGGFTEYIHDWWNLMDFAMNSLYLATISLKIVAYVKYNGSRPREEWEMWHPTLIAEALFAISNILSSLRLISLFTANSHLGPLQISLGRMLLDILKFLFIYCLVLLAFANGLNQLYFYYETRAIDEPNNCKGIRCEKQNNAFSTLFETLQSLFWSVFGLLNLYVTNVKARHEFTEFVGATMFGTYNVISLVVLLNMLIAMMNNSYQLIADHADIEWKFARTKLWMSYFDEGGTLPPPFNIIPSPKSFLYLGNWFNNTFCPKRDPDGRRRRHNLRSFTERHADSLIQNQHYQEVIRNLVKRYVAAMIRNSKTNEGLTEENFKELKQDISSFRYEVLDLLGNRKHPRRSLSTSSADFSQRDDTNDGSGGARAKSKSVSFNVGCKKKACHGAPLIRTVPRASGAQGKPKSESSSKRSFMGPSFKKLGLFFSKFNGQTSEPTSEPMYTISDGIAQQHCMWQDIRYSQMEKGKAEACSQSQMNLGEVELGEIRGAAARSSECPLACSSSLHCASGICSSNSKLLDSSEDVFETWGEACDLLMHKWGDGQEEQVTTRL
Excerpt: We initially screened for the photoswitchability of activity in cells using a fluorometric imaging plate reader (FLIPR) calcium flux assay, with HEK293 cells stably expressing mouse TRPC4β or mouse TRPC5. Note, however, that the parallel-throughput FLIPR setup is limited to use fixed light-emitting diodes at 365 nm (good Z) and 447 nm (suboptimal E), which, combined with the slowness of the onset and recovery of the fluorescence readout for calcium, causes the FLIPR results to underestimate the reagents’ true speed, degree and completion of TRPC chromocontrol (shown later). […]
3 Cultured Cell Lines (primarily for Fig. 1 and Fig. 2)
3.1 FLIPR Ca2+ influx assay in cell suspensions.
We initially screened for photoswitchability of activity in cells, using a fluorometric imaging plate reader (FLIPR) calcium flux assay, with human embryonic kidney cell line HEK293 stably transfected to express mouse TRPC4β- or TRPC5-CFP fusion protein (HEKmTRPC4β-CFP / HEKmTRPC5-CFP, HEK293 obtained from ATCC CRL 1573). The FLIPR setup provides high-content data, but it is limited to using LED wavelengths of 365 nm (best-Z) and 447 nm (suboptimal-E), while imaging at 470 nm excitation (Fluo-4 AM as Ca2+ indicator; this imaging light counteracts both PSSs). Therefore, we expected the FLIPR results to under-estimate the true chromocontrol power accessible to the reagents.
Cells were grown to 70%-90% confluency in a 75-cm2 culture flask, trypsinised, washed and resuspended in BSA-containing (0.1%) HBS, and supplemented with 3 µM Fluo-4/AM. Stably TRPC-transfected cells were induced with tetracycline 24 h prior to the experiments.42,43 After incubation at 37°C for 30 min [Fluo-4 loading], cells were again washed, resuspended, and dispensed (40 µl/well) into black pigmented, clear-bottom 384-well plates (Greiner µ-clear). To image the Fluo-4 fluorescence during the application and photoswitching of test compounds, these plates were first mounted to a Tecan Fluent 480 (Tecan, Männedorf, Switzerland) liquid handling device, equipped with a 384-tip multichannel arm and a gripper arm. A custom-made plate-imaging device was used for photoswitching during fluorescence imaging, which features LED-based excitation modules (365 nm and 447 nm used here for photoswitching, and 470 nm used here for Fluo-4 readout) projected onto the bottom of the microwell plate, with a cooled scientific complementary metal oxide sensor (sCMOS) camera (Zyla 5.5, Andor, Belfast, UK) equipped with a Nokton 42.5 mm f/0.95 (Voigtlaender, Fürth, Germany) for detection. The LEDs were controlled with an Arduino device and constant current drivers (1 A for 365 and 470 nm LEDs; 3 A for 447 nm LED); detection was under the control of Micromanager 2.0 software. Compounds were serially diluted and applied to the Fluo-4-loaded cell suspensions inside this custom plate-imaging device, then fluorescence intensities (under 470 nm excitation) were continuously recorded during programmed illuminations e.g. with alternating 365 nm and 447 nm phases.
Concentration-response curves for the Z-isomers (channel activation) were then constructed from the maximal signals during 365 nm phases, after a suitable number of "priming" cycles to allow the system to reach stable performance (Supplementary Fig. 13).
All experiments were conducted as a minimum of 3 independent experiments with each experiment averaging data in technical duplicates. […]
Cellular TRPC5 photoswitching: HEK cell Ca2+ influx photomodulation […]
Supplementary Figure 12. […] All […]
four compounds' profiles are consistent with their being ideal efficacy photoswitches (representative traces from one experiment out of ≥3 independent experiments each run in technical duplicates). […]
log c [nM] log c [nM] log c [nM] log c [nM]
Supplementary Figure 13. Dose-response for Z*-AzPico, Z*-AzPico2, Z*-AzHC, and Z*-AzHC2 on TRPC5 and […]

[1] = system: Th+ neurons of Th-GCaMP6f (WT) mice; assay: GCaMP6f Ca2+ imaging of Th+ neurons in arcuate nucleus brain slices with 355 nm photoswitching, Th-GCaMP6f (WT) mice; details: for EC50: Mus musculus, Neuron, read-out: EC50 of Z-isomer-induced Ca2+ responses (ΔAUC) in Th+ neurons, WT
Excerpt: slices through the ARC of mice expressing the Ca2+ indicator GCaMP6f in Th+ neurons (Fig. 4),
we investigated (1) whether Ca2+ responses at endogenous TRPC5 expression levels can be
TRPC5 expression using TRPC5-deficient brain slices, (3) whether a dose dependence could be
detected, and (4) whether there are properties in channel activity that can be distinguished between
concentration-response measurements (Fig. 5d).

| SMILES | Activity on TRPC5 in FLIPR screening (mouse TRPC5) | EC50 (mouse TRPC5) [nM] | Cells with sustained high Ca2+ signal lasting up to 3 min ([1]; 500 nM, 355 nm pulse) [%] | Cells with sustained high Ca2+ signal lasting up to 3 min (count) ([1]; 500 nM, 355 nm pulse) | EC50 [1] [nM] | Effect of E isomer alone on TRPC5 (mouse TRPC5; 12 pM to […], before 365-nm illumination) |
| --- | --- | --- | --- | --- | --- | --- |
| Cn1c(=O)n(CCCO)c(=O)c2c1nc(Oc1ccc(N=Nc3ccccc3)c(Cl)c1)n2Cc1ccc(Cl)cc1 [AzHC] | photoswitchable activity | 6.4 | 42 | 14 of 33 | 130 ± 100 | – |
| Cn1c(=O)n(CCCO)c(=O)c2c1nc(Oc1ccc(/N=N/c3ccccc3)c(OC(F)(F)F)c1)n2Cc1ccc(Cl)cc1 [E-AzPico] | – | – | – | – | – | no effect |
| Cn1c(=O)n(CCCO)c(=O)c2c1nc(Oc1ccc(N=Nc3ccccc3)c(OC(F)(F)F)c1)n2Cc1ccc(Cl)cc1 [AzPico] | photoswitchable activity | 4 | – | 13 out of 31 | – | – |
| Cn1c(=O)n(CCCO)c(=O)c2c1nc(Oc1ccc(/N=N\c3ccccc3)c(Cl)c1)n2Cc1ccc(Cl)cc1 [Z*-AzHC] | – | 6.4 | – | – | 130 ± 100 | – |
